The numbers were not newly measured in patent publication US8808752B2, “Controlled release particles and method for producing the same” (priority 2009, dated 2014), which cites them from elsewhere.

The structures appear in SMILES notation.

Regarding `C=C(C)C(=O)OCCOC(=O)C(=C)C` [Ethylene glycol dimethacrylate], the “water solubility (in words)” value was “water-insoluble”.

For the compound `CSc1nc(NC2CC2)nc(NC(C)(C)C)n1` [MBACT, 2-methylthio-4-t-butylamino-6-cyclopropylamino-s-triazine, reference compound], the water solubility is 7 ppm.

Turning to `C=C(C)C(=O)O` [Methacrylic acid], the water solubility is listed as 8.9 wt %.

For `CCCC1COC(Cn2cncn2)(c2ccc(Cl)cc2Cl)O1` (centres unmarked) [Propiconazole, 1-[2-(2,4-dichlorophenyl)-4-n-propyl-1,3-dioxolane-2-ylmethyl]-1H-1,2,4-triazole, reference compound], the water solubility is on record as 110 ppm.

As to `C=C(C)C(=O)OCCCC` [n-Butyl methacrylate], the water solubility was 0.08 wt %.
